Assay results from patent US20030139609A1, “Aziridinyl quinone antitumor agents based on indoles and cyclopent[b]indoles” (priority 2001, published 2003).
Values joined by “and” are separate entries in the source; they are usually repeats but may differ in a detail not shown here. Equal values may be shown once. Read-outs that look alike come from different tables or passages of the source.

How the values were obtained:
[1] = test system: 600 bp calf thymus DNA; assay: DNA reductive alkylation by catalytically reduced aziridinyl quinones; format: biochemical; conditions: for DNA alkylation percentage: catalytic reduction, anaerobic, pH 7.4 tris buffer, 30° C., 24 h, absorbance at 550 nm
Protocol: DNA Alkylation Screening of Series 1-9. The extent of DNA reductive alkylation was determined by catalytic reduction of the aziridinyl quinones in the presence of 600 bp calf thymus DNA. Oxidative workup afforded DNA colored blue as a result of the aminoquinone chromophore. […] The anaerobic conditions employed for DNA reductive alkylation assays is not meant to mimic the environment of tumor cells. These conditions do permit an accurate assessment of the structural requirements for DNA alkylation by the hydroquinone species. To be sure, agents incapable of akylating DNA under these ideal conditions will not do so in the typical cellular environment.
Alkylation of DNA by Reduced Indoloquinones. To a mixture of 1-2 mg of sonicated (600 bp) calf thymus DNA in 2.0 mL of 0.05 M of pH 7.4 tris buffer and 2 mg of Pd on carbon was added a five-to-one base pair equivalent amount of the indoloquinone dissolved in 0.5 mL of dimethylsulfoxide. The resulting solution was degassed under argon for 30 min., after which the mixture was purged with H2 for 10 min. The solution was then purged with argon for 10 min. and placed in a 30° C. bath for 24 h. The reaction was opened to the air and the catalyst was removed with a Millex-PF […] syringe filter. The filtrate was adjusted to 0.3 M acetate with a 3 M stock solution of pH 5.1 acetate and then diluted with two volumes of ethanol. The mixture was chilled at −20° C. for 12 h and the DNA pellet collected by centrifuging at 12,000 g for 20 min. The pellet was redissolved in water and then precipitated and centrifuged again. The resulting blue or red pellet was suspended in ethanol, centrifuged, and dried. The dried pellet was weighed and dissolved in 1 mL of double distilled water resulting in a clear colored solution with […]max˜550 nm, □˜750 M^−1 cm^−1. This is the chromophore of the aminoquinone resulting from nucleophile-mediated opening of the aziridine ring. Model 2′-chloroethyl aminoquinones for extinction coefficient determination were prepared by treatment of the indoloquinone with HCl. {Skibo, E. B. and Xing, C., Chemistry and DNA Alkylation Reactions of Aziridinyl Quinones: Development of an Efficient Alkylating Agent of the Phosphate Backbone, Biochemistry, 1998, 37, 15199-15213}.

[2] = test system: NCI-H460 non-small-lung cancer cell line; assay: NCI In Vitro Cell Line Screening, NSC H460 cell line; format: cell-based; conditions: for Log GI50 NSC H460: concentration for 50% growth inhibition; for Log TGI NSC H460: concentration for total growth inhibition; for GI50 / CC50: Homo sapiens; for GI50: NCI-H460, concentration for 50% growth inhibition, read-out: Log GI50 NSC H460 (converted); for CC50: NCI-H460, read-out: Log LC50 NSC H460, concentration for 50% cell kill (converted)
Excerpt: Cytotoxic and Cytostatic Screening of Series 1-9.

[3] = test system: National Cancer Institute 60-cell line; assay: NCI 60-cell line in vitro screen (average cytotoxicity and cancer specificity); conditions: for Average Log LC50 60-Cell Line: mean over 60 cell lines, ± value measures cancer specificity
Protocol: Cytotoxic and Cytostatic Screening of Series 1-9. […] The cytostatic parameters include GI50 and TGI, which are the concentrations of drug required for 50% growth inhibition and total growth inhibition, respectively. The cytotoxic parameter is the LC50, which is the concentration required for 50% cell kill.
4. […] Cancer specificity is measured from the ± value under the “Average Log LC50 60-Cell Line” heading of Table 5. A ± value greater than 2 indicates a greater than 100-fold higher/lower cytotoxicity in some histological cancer types compared to the mean cytotoxicity.
The DT-diaphorase levels in the National Cancer Institute 60-cell line in vitro screen have been determined and correlated with the cytotoxicity of antitumor agents activated by 2-electron reduction. {Fitzsimmons, S. A., Workman, P., Grever, M., Paull, K., Camalier, R., and Lewis, A. D., Reductase Enzyme Expression Across the National Cancer Institute Tumor Cell Line Panel: Correlation with Sensitivity To Mitomycin C and EO9, J. Natl. Cancer Inst., 1996, 88, 259-69}. Sensitive cancers usually include NSC lung and colon cancers (and to a lesser extent CNS, melanoma, and renal cancers) by virtue of their elevated DT-diaphorase levels.

[4] = test system: B16 melanoma; assay: animal or person; format: in vivo; conditions: for In vivo T/C (Treated/Control) / response vs control in vivo at 2 mg/kg: T/C at day 25, <40% active; for response vs control in vivo at 2 mg/kg: Mus musculus, B16, 600 h, read-out: In vivo T/C (Treated/Control)
Excerpt: Shown in Tables 6 and 7 are B16 melanoma syngraft assays {Griswold, D. P., Consideration of the Subcutaneously Implanted B16 Melanoma as a Screening Model for Potential Anticancer Agents, Cancer Chemother Reports, 1972, 3, 315-324} of some members of Series 1-9, as well as related compounds previously reported from this laboratory. {Xing, C. G., Wu, P., Skibo, E. B., and Dorr, R. T., Design of cancer-specific antitumor agents based on aziridlinylcyclopent[b]indoloquinones, J. Med. Chem., 2000, 43, 457-466}. Each agent was evaluated at three doses in C57/bl mice: 2, 3 or 5 mg/kg/day, on days 1, 5, and 9 after subcutaneous tumor implantation of 10^5 cells in the front flank on day 0. “Toxic” means that there was early lethality, or ≧50% lethality prior to any deaths in the control group. The treated over control values (T/C) were measured at day 25 of the study. A T/C value <40% is considered active.
In vivo Evaluation. The B-16 melanoma in C57/bl mice syngraft model was employed to determine in vivo activity. {Griswold, D. P., Consideration of the Subcutaneously Implanted B16 Melanoma as a Screening Model for Potential Anticancer Agents, Cancer Chemother Reports, 1972, 3, 315-324}. Each agent was evaluated at three doses: 2, 3 or 5 mg/kg/day, on days 1, 5, and 9 after subcutaneous tumor implantation of 10^5 cells in the front flank on day 0. “Toxic” means that there was early lethality, or ≧50% lethality prior to any deaths in the control group. The treated over control values (T/C) were measured at day 25 of the study. A T/C value<40% is considered active. […] The control was obtained with drug-free animals.

Row | Compound | DNA alkylation percentage [1] | Log TGI NSC H460 [2] | Average Log LC50 60-Cell Line [3] | GI50 [2] | CC50 [2] | cytostatic/cytotoxic activity versus histological cancer type (in words) [3] | In vivo T/C (Treated/Control) ([4]; 3 mg/Kg/Day on days 1, 5, 9) | In vivo T/C (Treated/Control) ([4]; 5 mg/Kg/Day on days 1, 5, 9) | other results
1 | 6-Aziridinyl-3-(hydroxymethyl)-2-methylcarboxylindol-4,7-dione [Compound 9b] | 2.2% | −5.55 and −5.39 | −5.20 ± 1.04 and −5.32 ± 1.14 |  |  |  |  |  | % of DNA bases reductively activated [1]: 2%; Log LC50 NSC H460 ([2]; concentration for 50% cell kill): −5.21 and −4.95; Log GI50 NSC H460 [2]: −5.90 and −5.80; cytostatic/cytotoxic activity versus histological cancer type (in words) ([3]; text b52, FIG. 4): significant cytotoxic and cytostatic properties
2 | O=C1C=C(N2CC2)C(=O)c2c1[nH]c1c2CCC1O (centres unmarked) [Compound 1a, 7-Aziridinyl-3-hydroxy-1,2,3,4-tetrahydrocyclopent[b]indole-5,8-dione] | 22.5% | −6.99 | −5.66 ± 1.52 | 10 nM | 295 nM |  |  |  | 
3 | O=C1C(N2CC2)=CC(=O)c2c1[nH]c1c2CCC1O (centres unmarked) [Compound 3a, 6-Aziridinyl-3-hydroxy-1,2,3,4-tetrahydrocyclopent[b]indole-5,8-dione] | 30% | −7.24 | −5.59 ± 1.95 | 7.24 nM | 1780 nM | significant cytostatic/cytotoxic activity |  |  | 
4 | CC(=O)OC1CCc2c1[nH]c1c2C(=O)C(C)=C(N2CC2)C1=O (centres unmarked) [Compound 4b] | 44% | −6.17 | −4.67 ± 1.04 | 112 nM | 1230 nM |  |  |  | ± value of Average Log LC50 60-Cell Line [3]: ~1
5 | CC(=O)OC1CCc2c3c(n(C(C)=O)c21)C(=O)C(N1CC1)=C(C)C3=O (centres unmarked) [Compound 4c] | 9% |  | −4.60 ± 1.12 and −4.49 ± 1.31 |  |  |  | 15% | 15% | In vivo T/C (Treated/Control) ([4]; 2 mg/Kg/Day on days 1, 5, 9): 37%; in vivo antitumor activity (in words) ([4]; 2, 3 or 5 mg/kg/day): active at all doses; in vivo toxicity (in words) ([4]; 2, 3 or 5 mg/kg/day): without any toxicity
6 | CC1=C(N2CC2)C(=O)c2c(c3c(n2C)C(O)CC3)C1=O (centres unmarked) [Compound 5a, 6-Aziridinyl-4,7-dimethyl-3-Hydroxy-1,2,3,4-tetrahydrocyclopent[b]indole-5,8-dione] | 0.3% | −5.12 |  | 1260 nM | 50100 nM | inactive against all histological cancer types |  |  | cytostatic and cytotoxic activity (−log) [2]: 5-6; CC50 ([3]; Homo sapiens, 60 cell, read-out: Average Log LC50 60-Cell Line (converted)): ≥ 100000 nM
7 | Cn1c(CO)c(CO)c2c1C(=O)C=C(N1CC1)C2=O [Compound 6b, 5-Aziridinyl-2,3-di(hydroxymethyl)-1-methylindole-4,7-dione] | 3.8% | −8 | −5.35 ± 2.65 and −5.50 ± 2.5 | 10 nM |  |  | Toxic (“Toxic” means ≧ 50% lethality before any control growth deaths) | Toxic (“Toxic” means ≧ 50% lethality before any control growth deaths) | In vivo T/C (Treated/Control) ([4]; 2 mg/Kg/Day on days 1, 5, 9): Toxic (“Toxic” means ≧ 50% lethality before any control growth deaths)
8 | CC1=C(N2CC2)C(=O)c2c([nH]c(CO)c2CO)C1=O [Compound 7a, 5-Aziridinyl-2,3-di(hydroxymethyl)-6-methylindole-4,7-dione] | 2% | −7.49 | −5.54 ± 1.89 | 10 nM | 1170 nM | significant cytotoxic and cytostatic properties | Toxic (“Toxic” means ≧ 50% lethality before any control growth deaths) | Toxic (“Toxic” means ≧ 50% lethality before any control growth deaths) | response vs control in vivo at 2 mg/kg ([4]; 2 mg/Kg/Day on days 1, 5, 9): 36%
9 | CC(=O)OCc1[nH]c2c(c1COC(C)=O)C(=O)C(C)=C(N1CC1)C2=O [Compound 8b, 6-Aziridinyl-2,3-di(acetoxymethyl)-5-methylindole-4,7-dione] | 37% | −6.75 and −6.71 | −4.52 ± 1.7 and −4.61 ± 2.5 | 35.5 nM |  |  | Toxic (“Toxic” means ≧ 50% lethality before any control growth deaths) | Toxic (“Toxic” means ≧ 50% lethality before any control growth deaths) | DNA alkylation (in words) [1]: high DNA alkylation percentages; Log GI50 NSC H460 [2]: −7.63; response vs control in vivo at 2 mg/kg ([4]; 2 mg/Kg/Day on days 1, 5, 9): 74%
10 | O=C1C(N2CC2)=CC(=O)c2c1[nH]c(CO)c2CO [Compound 9a, 6-Aziridinyl-2,3-di(hydroxymethyl)indole-4,7-dione] | 3.4% | −5.94 | −5.07 ± 1.43 | 138 nM | 11700 nM |  |  |  | 
